Assay results published in ChEMBL document CHEMBL3727369, “2-cyanophenyl fused heterocyclic compounds, and compositions and uses thereof” (2013).

molecular target: P2X3 receptor; experiment: Antagonist activity against rat or human P2X3 receptor expressed in HEK293/1321N1 cells assessed as inhibition of alpha,beta-meATP/ATP-induced calcium influx by Fluo-4 dye based FLIPR assay; type: functional, cell-based

Row | Compound | IC50
1 | N#Cc1cc(Cl)ccc1N1CCc2ncnc(N[C@H](CCO)c3ccc(C(F)(F)F)nc3)c2C1 | 90 nM
2 | Cc1ccc(N2CCc3ncnc(NCc4ccccn4)c3C2)c(C#N)c1 | 196 nM
3 | Cc1ccc(N2CCc3ncnc(NCc4ccc(C5CC5)cn4)c3C2)c(C#N)c1 | 236 nM
4 | COc1ccc(CNc2ncnc3c2CN(c2ccc(Cl)cc2C#N)CC3)cn1 | 59 nM
5 | CN(C)c1ccc(CNc2ncnc3c2CN(c2ccc(Cl)cc2C#N)CC3)cn1 | 628 nM
6 | N#Cc1cc(Cl)ccc1N1CCc2ncnc(NCc3ccc(Cl)c(-n4cnnc4)c3)c2C1 | 41 nM
7 | N#Cc1cc(Br)ccc1N1CCc2ncnc(NCc3ccc(C(F)(F)F)nc3)c2C1 | 80 nM
8 | N#Cc1cc(C2CC2)ccc1N1CCc2ncnc(NCc3ccc(C(F)(F)F)nc3)c2C1 | 870 nM
9 | Cc1ccc(N2CCc3ncnc(NCc4ncc(Cl)cc4Cl)c3C2)c(C#N)c1 | 41 nM
10 | Cc1ccc(N2CCc3ncnc(NCc4ccc5ccccc5n4)c3C2)c(C#N)c1 | 156 nM
11 | COc1ccc([C@@H](CC(=O)O)Nc2ncnc3c2CN(c2ccc(Cl)cc2C#N)CC3)cn1 | 1380 nM
12 | N#Cc1cc(Cl)ccc1N1CCc2ncnc(N[C@H](CO)c3ccc(C(F)(F)F)nc3)c2C1 | 54 nM
13 | Cc1ccc(N2CCc3ncnc(NCc4ccc(C)c(I)c4)c3C2)c(C#N)c1 | 512 nM
14 | N#Cc1cc(Cl)ccc1N1CCc2ncnc(N[C@H](CO)c3ccc(C(F)F)nc3)c2C1 | 16 nM
15 | N#Cc1ccccc1N1CCc2ncnc(NCc3ccc(C(F)(F)F)nc3)c2C1 | 63 nM
16 | COc1ccc([C@H](CC(=O)OC(C)(C)C)Nc2ncnc3c2CN(c2ccc(Cl)cc2C#N)CC3)cn1 | > 10000 nM
17 | Cc1ccc(N2CCc3ncnc(NCc4ccc(Cl)nc4)c3C2)c(C#N)c1 | 11 nM
18 | Cc1ccc(N2CCc3ncnc(N[C@H](CCO)c4ccc(C(F)(F)F)nc4)c3C2)c(C#N)c1 | 23 nM
19 | N#Cc1cc(Cl)ccc1N1CCc2ncnc(NCc3ccc(C(F)(F)F)nc3)c2C1 | 37 nM

Row | Compound | IC50
20 | Cc1ccc(N2CCc3ncnc(NCc4ccc(C)c(F)c4)c3C2)c(C#N)c1 | 89 nM
21 | COc1ccc([C@@H](CCO)Nc2ncnc3c2CN(c2ccc(Cl)cc2C#N)CC3)cn1 | 33 nM
22 | Cc1ccc(N2CCc3ncnc(NCc4ccc5nccnc5c4)c3C2)c(C#N)c1 | 34 nM
23 | Cc1nc(C(F)(F)F)ccc1CNc1ncnc2c1CN(c1ccc(Cl)cc1C#N)CC2 | 187 nM
24 | Cc1ccc(CNc2ncnc3c2CN(c2ccc(Cl)cc2C#N)CC3)cc1S(C)(=O)=O | 40 nM
25 | Cc1ccc(N2CCc3ncnc(NCc4ccc(C(F)(F)F)nc4)c3C2)c(C#N)c1 | 19 nM
26 | N#Cc1cc(C(F)(F)F)ccc1N1CCc2ncnc(NCc3ccc(C(F)(F)F)nc3)c2C1 | 1840 nM
27 | Cc1ccc(N2CCc3ncnc(NCc4ccc(C)c(C#N)c4)c3C2)c(C#N)c1 | 63 nM
28 | Cc1ccc(N2CCc3ncnc(NCc4ccc(C)c(-n5cncn5)c4)c3C2)c(C#N)c1 | 21 nM
29 | N#Cc1cc(Cl)ccc1N1CCc2ncnc(NCc3ccc(C(F)(F)F)cn3)c2C1 | 118 nM
30 | Cc1ccc(N2CCc3ncnc(NCc4ccc5ocnc5c4)c3C2)c(C#N)c1 | 15 nM
31 | N#Cc1cc(Cl)ccc1N1CCc2ncnc(NCc3ncc(C(F)(F)F)cc3Cl)c2C1 | 91 nM
32 | CSc1cc(CNc2ncnc3c2CN(c2ccc(C)cc2C#N)CC3)ccc1C | 474 nM
33 | COc1ccc(CNc2ncnc3c2CN(c2ccc(Br)cc2C#N)CC3)cn1 | 78 nM
34 | Cc1ccc(N2CCc3ncnc(N[C@H](CO)c4ccc(C(F)(F)F)nc4)c3C2)c(C#N)c1 | 21 nM
35 | Cc1ccc(N2CCc3ncnc(NCc4cccc(C#N)c4)c3C2)c(C#N)c1 | 183 nM
36 | CCc1ccc(CNc2ncnc3c2CN(c2ccc(C)cc2C#N)CC3)cn1 | 38 nM
37 | N#Cc1cc(Cl)ccc1N1CCc2ncnc(NCc3cccc(-n4cnnc4)c3)c2C1 | 284 nM
38 | Cc1ccc(N2CCc3ncnc(NCc4ccn5ccnc5c4)c3C2)c(C#N)c1 | 18 nM

Row | Compound | IC50
39 | Cc1ccc(N2CCc3ncnc(NCc4ccc5cccnc5c4)c3C2)c(C#N)c1 | 20 nM
40 | N#Cc1cc(F)ccc1N1CCc2ncnc(NCc3ccc(C(F)(F)F)nc3)c2C1 | 85 nM
41 | Cc1ccc(N2CCc3ncnc(N[C@@H](CCO)c4ccc(C(F)(F)F)nc4)c3C2)c(C#N)c1 | 806 nM
42 | CC(=O)OCC[C@@H](Nc1ncnc2c1CN(c1ccc(C)cc1C#N)CC2)c1ccc(C(F)(F)F)nc1 | 130 nM
43 | Cc1ccc(N2CCc3ncnc(NCc4ccc(C)c(N5CCOCC5)c4)c3C2)c(C#N)c1 | 96 nM
44 | N#Cc1cc(Cl)ccc1N1CCc2ncnc(NCc3ccn4ccnc4c3)c2C1 | 122 nM
45 | Cc1ccc(N2CCc3ncnc(NC(CCO)c4ccc(C(F)(F)F)nc4)c3C2)c(C#N)c1 (configuration not stated) | 55 nM
46 | COc1ccc([C@@H](CO)Nc2ncnc3c2CN(c2ccc(Cl)cc2C#N)CC3)cn1 | 23 nM
47 | Cc1ccc(N2CCc3ncnc(NCc4ccc5cc[nH]c5c4)c3C2)c(C#N)c1 | 423 nM
48 | N#Cc1cc(Cl)ccc1N1CCc2ncnc(NCc3ccc4nccnc4c3)c2C1 | 125 nM
49 | Cc1ccc(N2CCc3ncnc(NCc4ccc5c(c4)OCO5)c3C2)c(C#N)c1 | 56 nM
50 | Cc1ccc(N2CCc3ncnc(NCc4ccc(C)c(S(C)(=O)=O)c4)c3C2)c(C#N)c1 | 16 nM
51 | Cc1ccc(N2CCc3ncnc(NCc4ccc(Cl)c(S(C)(=O)=O)c4)c3C2)c(C#N)c1 | 37 nM
52 | N#Cc1cc(Cl)ccc1N1CCc2ncnc(N[C@H](CCO)c3ccc(C(F)F)nc3)c2C1 | 32 nM
53 | Cc1ccc(N2CCc3ncnc(NCc4cccc(-n5cnnc5)c4)c3C2)c(C#N)c1 | 65 nM
54 | Cc1ccc(N2CCc3ncnc(N[C@H](CCO)c4ccc(C(F)F)nc4)c3C2)c(C#N)c1 | 13 nM
55 | Cc1ccc(N2CCc3ncnc(NCc4ccc(Cl)c(-n5cnnc5)c4)c3C2)c(C#N)c1 | 31 nM
56 | Cc1ccc(N2CCc3ncnc(NCc4ccc(Cl)cn4)c3C2)c(C#N)c1 | 29 nM

molecular target: T1, P2X2/P2X3 heterotrimeric receptor (Homo sapiens, UniProt P56373+Q9UBL9); experiment: Antagonist activity against human P2X2/3 receptor expressed in HEK293/1321N1 cells assessed as inhibition of alpha,beta-meATP/ATP-induced calcium influx by Fluo-4 dye based FLIPR assay; type: functional, cell-based
T1 sequence (Q9UBL9 whole entry): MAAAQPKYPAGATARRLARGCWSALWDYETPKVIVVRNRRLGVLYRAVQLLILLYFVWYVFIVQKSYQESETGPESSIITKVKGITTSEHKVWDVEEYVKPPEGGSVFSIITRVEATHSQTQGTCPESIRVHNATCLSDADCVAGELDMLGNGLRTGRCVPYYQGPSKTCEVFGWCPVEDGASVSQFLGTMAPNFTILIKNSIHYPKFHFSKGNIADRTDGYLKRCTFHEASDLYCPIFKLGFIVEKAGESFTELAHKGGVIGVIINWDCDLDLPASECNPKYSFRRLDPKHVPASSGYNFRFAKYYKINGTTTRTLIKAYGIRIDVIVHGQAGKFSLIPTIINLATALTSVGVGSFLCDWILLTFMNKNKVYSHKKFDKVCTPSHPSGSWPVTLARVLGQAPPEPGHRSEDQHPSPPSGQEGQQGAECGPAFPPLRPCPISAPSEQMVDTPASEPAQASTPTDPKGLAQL
T1 sequence (P56373 whole entry): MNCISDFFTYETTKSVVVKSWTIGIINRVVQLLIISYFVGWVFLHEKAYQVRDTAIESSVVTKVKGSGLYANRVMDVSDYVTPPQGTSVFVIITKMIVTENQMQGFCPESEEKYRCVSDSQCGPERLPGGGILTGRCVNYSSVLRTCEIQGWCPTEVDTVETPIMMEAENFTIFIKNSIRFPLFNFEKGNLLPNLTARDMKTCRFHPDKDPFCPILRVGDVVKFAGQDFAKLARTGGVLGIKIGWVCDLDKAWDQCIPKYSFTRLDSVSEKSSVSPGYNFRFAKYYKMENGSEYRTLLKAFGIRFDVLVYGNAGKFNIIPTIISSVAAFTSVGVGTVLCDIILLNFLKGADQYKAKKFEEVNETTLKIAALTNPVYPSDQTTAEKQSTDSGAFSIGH

Row | Compound | IC50
57 | COc1ccc([C@H](CC(=O)OC(C)(C)C)Nc2ncnc3c2CN(c2ccc(Cl)cc2C#N)CC3)cn1 | > 10000 nM
